What was measured:
[1] = biological target: Coagulation factor X (Homo sapiens, UniProt P00742); test: Binding affinity towards human Coagulation factor X
[2] = Binding affinity towards Thrombin; parameters: species or system Homo sapiens

Coagulation factor X, sequence (P00742 41-179 limits assumed): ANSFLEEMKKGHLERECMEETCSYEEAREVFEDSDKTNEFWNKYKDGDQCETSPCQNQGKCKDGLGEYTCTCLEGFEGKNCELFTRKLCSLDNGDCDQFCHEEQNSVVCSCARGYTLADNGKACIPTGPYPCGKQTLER
Coagulation factor X, sequence (P00742 235-488 limits assumed): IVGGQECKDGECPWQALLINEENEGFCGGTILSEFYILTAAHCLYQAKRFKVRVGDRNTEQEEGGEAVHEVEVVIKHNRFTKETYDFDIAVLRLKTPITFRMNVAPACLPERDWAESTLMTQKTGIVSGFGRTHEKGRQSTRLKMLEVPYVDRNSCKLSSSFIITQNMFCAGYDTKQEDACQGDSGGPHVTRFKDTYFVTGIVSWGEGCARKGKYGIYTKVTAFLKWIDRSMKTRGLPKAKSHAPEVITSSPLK

SMILES	Ki [1] [µM]	Ki [2] [µM]
COc1ccc(C(=O)NCC2CCN(c3ccc(S(C)(=O)=O)cc3)CC2)cc1OCCc1ccc(Cl)cc1Cl	10	
COc1ccc(C(=O)NCC2CCN(c3ccnc(SC)n3)CC2)cc1OCCc1ccc(Cl)cc1Cl	10	
CC(=O)Nc1ccc(CCOc2cc(C(=O)NCC3CCN(c4ccncc4)CC3)ccc2F)cc1	10	
COc1cc(C(=O)NCC2CCN(c3ccncc3)CC2)cc(OCCc2ccc(Cl)cc2)c1Cl		3.73
COc1ccc(C(=O)NCC2CCN(c3cccc(C#N)c3)CC2)cc1OCCc1ccc(Cl)cc1Cl	10	
COc1ccc(C(=O)Nc2ccc(-c3ccccc3C#N)cc2)cc1OCCc1ccc(Cl)cc1Cl	10	
COc1ccc(C(=O)NC2CCN(C3CCCCC3)CC2)cc1OCCc1ccc(Cl)cc1Cl	4.03	
COc1ccc(C(=O)NC2CCN(C3CCOCC3)CC2)cc1OCCc1ccc(Cl)cc1Cl	2.52	
CC(=O)Nc1ccc(CCOc2cc(C(=O)NCC3CCN(c4ccncc4)CC3)ccc2Cl)cc1	10	
COc1ccc(C(=O)NCC2CCN(c3cncnc3)CC2)cc1OCCc1ccc(Cl)cc1Cl	10	
CCN(CC)C(=O)[C@H](CCCN=C(N)N)NC(=O)c1ccc(OC)c(OCCc2ccc(Cl)cc2Cl)c1	0.153	
COc1ccc(N2CCC(CNC(=O)c3ccc(OC)c(OCCc4ccc(Cl)cc4Cl)c3)CC2)cn1	10	
COc1ccc(C(=O)NCC2CCN(c3cc(C)nc(N)n3)CC2)cc1OCCc1ccc(Cl)cc1Cl	10	
COc1ccc(C(=O)NC2CCN(c3cc[n+]([O-])cc3)CC2)cc1OCCc1ccc(Cl)cc1Cl	1.27	
COc1ccc(C(=O)NCC2CCN(c3ccnc(C)c3)CC2)cc1OCCc1ccc(Cl)cc1Cl		20.8
O=C(NCC1CCN(c2ccncc2)CC1)c1ccc(Cl)c(OCCc2ccc(Cl)cn2)c1		5.4
COc1ccc(C(=O)NC2CCN(CC(=O)N3CCCC3)CC2)cc1OCCc1ccc(Cl)cc1Cl	2.57	
COc1ccc(C(=O)NCC2CCN(c3ccc(Cl)cc3)CC2)cc1OCCc1ccc(Cl)cc1Cl	10	
CC(=O)Oc1cc(C(=O)NCC2CCN(c3ccncc3)CC2)cc(OCCc2ccc(Cl)cc2Cl)c1Br	0.285	
COc1cc(N2CCC(CNC(=O)c3ccc(OC)c(OCCc4ccc(Cl)cc4Cl)c3)CC2)nc(OC)n1	10	
COc1ccc(C(=O)NCC2CCN(C3CCNCC3)CC2)cc1OCCc1ccc(Cl)cc1Cl	5.76	
O=C(NCC1CCN(c2ccncc2)CC1)c1ccc(Cl)c(OCCc2ccc(Br)cc2)c1		4.73
COc1ccc(C(=O)NCC2CCN(c3ccncc3)CC2)cc1OCCc1ccc(Cl)cc1		5.27
O=C(NCC1CCN(c2ccncc2)CC1)c1ccc(F)c(OCCc2ccc(Cl)cc2)c1		5.62

Further lines, results first:

Ki [1] [µM]	Ki [2] [µM]	SMILES
3.93		COc1ccc(C(=O)N2CCN(Cc3ccc(F)cc3)CC2)cc1OCCc1ccc(Cl)cc1Cl
	2.27	COc1cc(C(=O)NCC2CCN(c3ccncc3)CC2)cc(OCCc2ccc(Cl)cc2Cl)c1Br
	1.8	COc1cc(C(=O)NCC2CCN(c3ccncc3)CC2)cc(OCCc2ccc(Cl)cc2Cl)c1Cl
	1.74	COc1cc(C(=O)NCC2CCN(c3ccncc3)CC2)cc(OCCc2ccc(Cl)cc2Cl)c1C
	3.06	O=C(NCC1CCN(c2ccncc2)CC1)c1ccc(Cl)c(OCCc2ccc(Cl)cc2Cl)c1
	36.9	CCOc1cc(C(=O)NCC2CCN(c3ccncc3)CC2)cc(OCCc2ccc(Cl)cc2Cl)c1Br
	1.68	O=C(NCC1CCN(c2ccncc2)CC1)c1cc(OCCc2ccc(Cl)cc2Cl)c2c(c1)OCO2
	4.87	Cc1ccc(C(=O)NCC2CCN(c3ccncc3)CC2)cc1OCCc1ccc(Cl)cc1Cl
2.82		O=C(c1cccc(OCCc2ccc(Cl)cc2Cl)c1)N1CCN(Cc2ccncc2)CC1
	5.08	NC(=O)c1cc(OCCc2ccc(Cl)cc2Cl)cc(C(=O)NCC2CCN(c3ccncc3)CC2)c1
	4.12	COc1cc(C(=O)NCC2CCN(c3ccncc3)CC2)cc(OCCc2ccc(Cl)cc2Cl)c1OC
	1.1	CNc1ccc(C(=O)NCC2CCN(c3ccncc3)CC2)cc1OCCc1ccc(Cl)cc1Cl
	2.76	O=C(NCC1CCN(c2ccncc2)CC1)c1ccc(Cl)c(OCCc2ccc(Cl)cc2)c1
	31.8	O=C(NCC1CCN(c2ccncc2)CC1)c1ccc(C(F)(F)F)c(OCCc2ccc(Cl)cc2Cl)c1
	6.32	CCOc1ccc(C(=O)NCC2CCN(c3ccncc3)CC2)cc1OCCc1ccc(Cl)cc1Cl
